Patent publication US20110086759A1, “CHEMICAL COMPOUNDS” (SYNGENTA CROP PROTECTION, INC., priority 2007, published 2011)

Assays:
Format in all cases: in vivo
[1] = system: Amaranthus retoflexus (AMARE); experiment: Pre-emergence biological efficacy, glasshouse pot test; conditions: Amaranthus retroflexus, 312 h
Procedure: (§1) Seeds of Alopecurus myosuroides (ALOMY), Setaria faberi (SETFA), Echinochloa crus-galli (ECHCG), Solanum nigrum (SOLNI), Amaranthus retoflexus (AMARE) and Ipomea hederaceae (IPOHE) were sown in standard soil in pots. After cultivation for one day under controlled conditions in a glasshouse (at 24/16° C., day/night; 14 hours light; 65% humidity), the plants were sprayed with an aqueous spray solution derived from the formulation of the technical active ingredient in acetone/water (50:50) solution containing 0.5% Tween 20 (polyoxyethelyene sorbitan monolaurate, CAS RN 9005-64-5) to give a final dose of 1000 or 250 g/ha of test compound.
(§2) The test plants were then grown under controlled conditions in the glasshouse (at 24/16° C., day/night; 14 hours light; 65% humidity) and watered twice daily. After 13 days the test was evaluated (100=total damage to plant; 0=no damage to plant).

[2] = system: Echinochloa crus-galli (ECHCG); experiment: as above; conditions: 312 h
Procedure: as §1, §2

[3] = system: Ipomea hederaceae (IPOHE); experiment: as above; conditions: Ipomoea hederacea, 312 h
Procedure: as §1, §2

[4] = system: Solanum nigrum (SOLNI); experiment: as above; conditions: 312 h
Procedure: as §1, §2

[5] = system: Alopecurus myosuroides (ALOMY); experiment: as above; conditions: 312 h
Procedure: as §1, §2

[6] = system: Setaria faberi (SETFA); experiment: as above; conditions: 312 h
Procedure: as §1, §2

[7] = system: Amaranthus retoflexus (AMARE); experiment: Post-emergence biological efficacy, glasshouse pot test; conditions: Amaranthus retroflexus, 312 h
Procedure: as §1, with “8 days” for “one day”
(§3) The test plants were then grown on under controlled conditions in a glasshouse (at 24/16° C., day/night; 14 hours light; 65% humidity) and watered twice daily. After 13 days the test was evaluated (100=total damage to plant; 0=no damage to plant).

[8] = system: Echinochloa crus-galli (ECHCG); experiment: as above; conditions: 312 h
Procedure: as §1, with “8 days” for “one day”
as §3

[9] = system: Ipomea hederaceae (IPOHE); experiment: as above; conditions: Ipomoea hederacea, 312 h
Procedure: as §1, with “8 days” for “one day”
as §3

[10] = system: Solanum nigrum (SOLNI); experiment: as above; conditions: 312 h
Procedure: as §1, with “8 days” for “one day”
as §3

[11] = system: Alopecurus myosuroides (ALOMY); experiment: as above; conditions: 312 h
Procedure: as §1, with “8 days” for “one day”
as §3

[12] = system: Setaria faberi (SETFA); experiment: as above; conditions: 312 h
Procedure: as §1, with “8 days” for “one day”
as §3

[13] = pre-emergence, rate 1,000 g/ha, evaluated after 13 days (100=total damage to plant; 0=no damage), read-out: Percentage damage caused to weed species, AMARE
[14] = pre-emergence, rate 1,000 g/ha, evaluated after 13 days (100=total damage to plant; 0=no damage), read-out: Percentage damage caused to weed species, ECHCG
[15] = pre-emergence, rate 1,000 g/ha, evaluated after 13 days (100=total damage to plant; 0=no damage), read-out: Percentage damage caused to weed species, IPOHE
[16] = pre-emergence, rate 1,000 g/ha, evaluated after 13 days (100=total damage to plant; 0=no damage), read-out: Percentage damage caused to weed species, SOLNI
[17] = pre-emergence, rate 1,000 g/ha, evaluated after 13 days (100=total damage to plant; 0=no damage), read-out: Percentage damage caused to weed species, ALOMY
[18] = pre-emergence, rate 1,000 g/ha, evaluated after 13 days (100=total damage to plant; 0=no damage), read-out: Percentage damage caused to weed species, SETFA
[19] = Rate 1,000 g/ha, post-emergence spray, evaluated after 13 days (100=total damage to plant; 0=no damage to plant), read-out: Percentage damage caused to weed species, post-emergence, AMARE
[20] = Rate 1,000 g/ha, post-emergence spray, evaluated after 13 days (100=total damage to plant; 0=no damage to plant), read-out: Percentage damage caused to weed species, post-emergence, ECHCG
[21] = Rate 1,000 g/ha, post-emergence spray, evaluated after 13 days (100=total damage to plant; 0=no damage to plant), read-out: Percentage damage caused to weed species, post-emergence, IPOHE
[22] = Rate 1,000 g/ha, post-emergence spray, evaluated after 13 days (100=total damage to plant; 0=no damage to plant), read-out: Percentage damage caused to weed species, post-emergence, SOLNI
[23] = Rate 1,000 g/ha, post-emergence spray, evaluated after 13 days (100=total damage to plant; 0=no damage to plant), read-out: Percentage damage caused to weed species, post-emergence, ALOMY
[24] = Rate 1,000 g/ha, post-emergence spray, evaluated after 13 days (100=total damage to plant; 0=no damage to plant), read-out: Percentage damage caused to weed species, post-emergence, SETFA
[25] = pre-emergence, 1,000 g/ha, evaluated after 13 days (100=total damage; 0=no damage), read-out: Percentage damage AMARE
[26] = pre-emergence, 1,000 g/ha, evaluated after 13 days (100=total damage; 0=no damage), read-out: Percentage damage ECHCG
[27] = pre-emergence, 1,000 g/ha, evaluated after 13 days (100=total damage; 0=no damage), read-out: Percentage damage IPOHE
[28] = pre-emergence, 1,000 g/ha, evaluated after 13 days (100=total damage; 0=no damage), read-out: Percentage damage SOLNI
[29] = pre-emergence, 1,000 g/ha, evaluated after 13 days (100=total damage; 0=no damage), read-out: Percentage damage ALOMY
[30] = pre-emergence, 1,000 g/ha, evaluated after 13 days (100=total damage; 0=no damage), read-out: Percentage damage SETFA
[31] = post-emergence, 1,000 g/ha, evaluated after 13 days (100=total damage; 0=no damage), read-out: Percentage damage caused to weed species, AMARE
[32] = post-emergence, 1,000 g/ha, evaluated after 13 days (100=total damage; 0=no damage), read-out: Percentage damage caused to weed species, ECHCG
[33] = post-emergence, 1,000 g/ha, evaluated after 13 days (100=total damage; 0=no damage), read-out: Percentage damage caused to weed species, IPOHE
[34] = post-emergence, 1,000 g/ha, evaluated after 13 days (100=total damage; 0=no damage), read-out: Percentage damage caused to weed species, SOLNI
[35] = post-emergence, 1,000 g/ha, evaluated after 13 days (100=total damage; 0=no damage), read-out: Percentage damage caused to weed species, ALOMY
[36] = post-emergence, 1,000 g/ha, evaluated after 13 days (100=total damage; 0=no damage), read-out: Percentage damage caused to weed species, SETFA

SMILES	pest or weed control at 1000 g/ha [1, 13]	pest or weed control at 1000 g/ha [2, 14]	pest or weed control at 1000 g/ha [3, 15]	pest or weed control at 1000 g/ha [4, 16]	pest or weed control at 1000 g/ha [5, 17]	pest or weed control at 1000 g/ha [6, 18]	pest or weed control at 1000 g/ha [7, 19]	pest or weed control at 1000 g/ha [8, 20]	pest or weed control at 1000 g/ha [9, 21]	pest or weed control at 1000 g/ha [10, 22]	pest or weed control at 1000 g/ha [11, 23]	pest or weed control at 1000 g/ha [12, 24]	other results
COC(=O)c1nc(C2CC2)nc(N(CCC#N)Cc2ccco2)c1Cl [Compound 161-125, 5-Chloro-4-[N-(2-cyanoethyl)-N-furan-2-ylmethyl-amino]-2-cyclo-propyl-6-methoxy-carbonylpyrimidine]	100%	20%	80%	30%	20%	0%	80%	10%	40%	50%	0%	40%	–
C=CCN(Cc1ccccc1)c1nc(C2CC2)nc(C(=O)OC)c1Cl [Compound 151-60, 5-Chloro-2-cyclopropyl-6-methoxycarbonyl-4-(N-phenylmethyl-N-prop-2-en-1-yl-amino)-pyrimidine]	40%	20%	60%	10%	20%	10%	100%	40%	70%	80%	20%	80%	–
COC(=O)c1nc(C2CC2)nc(NCc2ncccc2C)c1Cl [Compound 4-153, 5-Chloro-2-cyclopropyl-6-methoxycarbonyl-4-(3-methylpyrid-2-ylmethylamino)-pyrimidine]	–	–	–	–	–	–	–	–	–	–	–	–	pest or weed control at 1000 g/ha [1, 25]: 100%; pest or weed control at 1000 g/ha [2, 26]: 60%; pest or weed control at 1000 g/ha [3, 27]: 100%; pest or weed control at 1000 g/ha [4, 28]: 100%; pest or weed control at 1000 g/ha [5, 29]: 50%; pest or weed control at 1000 g/ha [6, 30]: 60%; pest or weed control at 1000 g/ha [7, 31]: 100%; pest or weed control at 1000 g/ha [8, 32]: 80%; pest or weed control at 1000 g/ha [9, 33]: 100%; pest or weed control at 1000 g/ha [10, 34]: 100%; pest or weed control at 1000 g/ha [11, 35]: 70%; pest or weed control at 1000 g/ha [12, 36]: 90%
COC(=O)c1nc(C2CC2)nc(N(C)Cc2cccc(Cl)c2)c1Cl [Compound 5-62, 5-Chloro-4-[N-(3-chlorophenyl-methyl)-N-methyl-amino]-2-cyclo-propyl-6-methoxy-carbonylpyrimidine]	100%	0%	60%	20%	0%	10%	100%	30%	90%	80%	20%	40%	–
COC(=O)c1nc(C2CC2)nc(N(C/C=C/c2ccccc2OC)C(C)C)c1Cl [Compound 146-255, 5-Chloro-2-cyclopropyl-4-{N-isopropyl-N-[3-(2-methoxyphenyl)-prop-2-enyl]-amino}-6-methoxycarbonyl-pyrimidine]	100%	10%	70%	10%	10%	20%	100%	30%	100%	80%	20%	80%	–
COC(=O)c1nc(C2CC2)nc(N[C@@H](CO)Cc2ccccc2)c1Cl [4-273 (R), 5-Chloro-2-cyclopropyl-4-[(1R)-1-hydroxymethyl-2-phenyl-ethylamino]-6-methoxycarbonyl-pyrimidine]	–	–	–	–	–	–	–	–	–	–	–	–	pest or weed control at 1000 g/ha [1, 25]: 80%; pest or weed control at 1000 g/ha [2, 26]: 60%; pest or weed control at 1000 g/ha [3, 27]: 100%; pest or weed control at 1000 g/ha [4, 28]: 80%; pest or weed control at 1000 g/ha [5, 29]: 50%; pest or weed control at 1000 g/ha [6, 30]: 70%; pest or weed control at 1000 g/ha [7, 31]: 100%; pest or weed control at 1000 g/ha [8, 32]: 60%; pest or weed control at 1000 g/ha [9, 33]: 90%; pest or weed control at 1000 g/ha [10, 34]: 90%; pest or weed control at 1000 g/ha [11, 35]: 30%; pest or weed control at 1000 g/ha [12, 36]: 60%
C=CCN(Cc1cccs1)c1nc(C2CC2)nc(C(=O)OC)c1Cl [Compound 151-140, 5-Chloro-2-cyclopropyl-6-methoxycarbonyl-4-(N-prop-2-en-1-yl-N-thiophen-2-ylmethyl-amino)-pyrimidine]	100%	0%	20%	70%	0%	10%	60%	10%	70%	50%	10%	50%	–
